# Patent US20180360791A1, “FATTY ACID MONOGLYCERIDE COMPOSITIONS” (Stiefel Laboratories, Inc., priority 2009, published 2018)
# Counter-ions that a name gives are not always drawn.
# How the values were obtained:
# Trichophyton rubrum = test: Liquid broth assay (MIC); assay type: cell-based; details: for MIC: Trichophyton rubrum, 672 h, liquid (broth) culture, incubated up to 4 weeks, one value without distinguishing the two dermatophytes, read-out: minimal inhibitory concentration (MIC); for antifungal activity ranking: liquid broth assay, rank 1 = most active, same ranking for both dermatophytes
# Description: (§1) The minimum inhibitory concentration (MIC) of various test agents were tested in a standard protocol against two dermatophytes: Trichophyton rubrum and Trichophyton mentagrophyles:
# (§2) Trichophyton rubrum and Trichophyton mentagrophytes were grown on potato dextrose agar (PDA) at 30° C. for 1-5 weeks. One clone was picked randomly and grown in sabouraud dextrose broth (SDB) to a density of 1×10^6 colony forming units (cfu) per ml. Various concentrations of test agents were added to the dermatophyte cultures and incubated for up to 4 weeks. Each week, an aliquot of the liquid culture was taken and placed on a PDA plate, and incubated for up to 3 weeks to assess growth. The plates were examined and photographed each week. Cultures were considered positive when more than 2 colonies were found per plate.
# [1] = system: Trichophyton mentagrophytes; test: Liquid broth assay (MIC); assay type: cell-based; details: for MIC: Trichophyton mentagrophytes, 672 h, liquid (broth) culture, incubated up to 4 weeks, one value without distinguishing the two dermatophytes, read-out: minimal inhibitory concentration (MIC); for antifungal activity ranking: liquid broth assay, rank 1 = most active, same ranking for both dermatophytes
# Description: as §1, §2
Compound,MIC (Trichophyton rubrum) [µg/mL],antifungal activity ranking (Trichophyton rubrum),MIC [1] [µg/mL],antifungal activity ranking [1]
"CCCCCCCCCC(=O)OCC(O)CO (racemic) [1-monocaprin, 1-decanoyl-rac-glycerol]",250,5,250,5
"CCCCc1ccc(C(=O)O)nc1 [Fusaric acid, fusaric Acid]",500,6,500,6
"CN(C/C=C/C#CC(C)(C)C)Cc1cccc2ccccc12 [Terbinafine, terbinafine HCl]",< 3.9,1,< 3.9,1
Cc1cc(C2CCCCC2)n(O)c(=O)c1 [ciclopirox],31.3,4,31.3,4
"Clc1ccc(COC(Cn2ccnc2)c2ccc(Cl)cc2Cl)cc1 (stereo not drawn) [econazole, econazole Nitrate]",< 3.9,1,< 3.9,1
CC(=O)N1CCN(c2ccc(OCC3COC(Cn4ccnc4)(c4ccc(Cl)cc4Cl)O3)cc2)CC1 (stereo not drawn) [ketoconazole],–,3,–,3
Clc1ccc(C(Cn2ccnc2)OCc2ccsc2Cl)c(Cl)c1 (stereo not drawn) [tioconazole],–,2,–,2
